Experimental data taken from doi:10.1101/2025.07.06.663376v1, “Fubylation as a Druggable Ubiquitin-Like Conjugation System Controlling Hippo Pathway Activity” (biorxiv, 2025).

Assays:
Type in all cases: binding
[1] = molecular target: T1, FUBI (Homo sapiens, UniProt P62861); experiment: photo-crosslinking, rhodamine-azide click, in-gel fluorescence
T1 construct: gene FAU; mature FUBI (74 residues, ends VAGRMLGG) cut from the FAU precursor (FUBI-eS30 fusion); E. coli BL21; GST-FUBI (pGEX-6P-1) for photolabelling; untagged FUBI (6-HIS-SUMO removed by ULP1) for HDX-MS; printed peptides 32-42 EGIAPEDQVVL and 67-74 VAGRMLGG
Description: photo-crosslinking, rhodamine-azide click, in-gel fluorescence on FUBI | recombinant preparations of FUBI, but not S30, were dose-dependently labeled by mCMN927

[2] = molecular target: T2, FAU (Homo sapiens, UniProt P62861); experiment: as above
T2 construct: uncleaved FAU precursor (FUBI fused to ribosomal protein S30); GST-tagged (pGEX-6P-1), E. coli BL21, glutathione agarose

[3] = molecular target: T1, FUBI; experiment: HDX-MS (also competition of probe labelling); settings: untagged FUBI 5 µM, 600 µM compound, 20 mM Tris-HCl, 100 mM NaCl, pH 8.0, 25 °C; non-covalent; residues 32-42 and 67-74

EC50 [1] [µM]	EC50 [2] [µM]	SMILES	HDX-MS (also competition of probe labelling) [3]
3.5	4.3	C#CCCC1(CCN(C)CC2CCN(c3nc(-c4ccncc4)nc4ccccc34)CC2)N=N1 [mCMN927, {2-[3-(but-3-yn-1-yl)diazirin-3-yl]ethyl}(methyl)({1-[2-(pyridin-4-yl)quinazolin-4-yl]piperidin-4-yl}methyl)amine]	–
–	–	CN(C)CC1CCN(c2nc(-c3ccncc3)nc3ccccc23)CC1 [sCMF231]	sCMF231 treatment reduced deuterium exchange within two key regions
